“And” between values parts separate entries of the source, which are not always exact repeats. Equal entries are not always repeated.
Tests used:
[1] = system: human renal proximal tubule epithelial cells; assay: Effect of various compounds on apoptosis, CaspASE staining and FACS; type: cell-based
Experimental: Normal and cystinotic fibroblasts were purchased from the Coriell Mutant Cell Repository, and cultured in Coon modification of Ham F12 medium, supplemented with 10% fetal calf serum (FCS). Renal proximal tubule epithelial (RPTE; Biowhittaker Corp.) were cultured in renal epithelial basal medium supplemented with one Singlequots™ kit (Biowhittaker) per 500 mL to make renal epithelial growth media (REGM, Biowhittaker). Fibroblasts and RPTE were maintained in a 5% carbon dioxide, 95% air, humidified incubator at 37° C. (Thoene J. G. et al, 1976 J. Clin. Invest, 58:180-189).
Cultured human renal proximal tubule epithelial cells were incubated with various apoptotic compounds at a concentration of 0.5 mM for 16 hours. Following incubation, cells were stained with CaspASE. Fluorescence-activated cell sorting (Beckman Coulter Epics Elite) was used to determine the percentage of cells undergoing apoptosis from each treatment group.

[2] = system: liver of black mice; assay: Liver cystine concentration after CDME injection (CBP and BCA assays); type: in vivo, mouse
Experimental: Intracellular lysosomal free cystine was determined using a cystine binding protein (CBP) assay (Oshima et al, 1974 J. Biol. Chem., 249:6033-6039). CBP was procured from Riverside Scientific. The assay has a sensitivity of 0.1 μM. Total cell protein was determined by a modification of the Lowry method (Lowry O. et al 1951 J. Biol. Chem., 193:265-275). Statistical analyses were performed using paired t test for means with SSPS for Windows. Results are mean+/−1.0 SD (FIG. 3).
CDME was evaluated in mice for cystine generation in response to varying doses as follows: A stock solution of CDME in PBS was prepared having a concentrations of 1.8 g CDME/500 μL PBS. The stock solution was diluted to generate solutions for administration. 500 μL of diluted solutions were injected intraperitoneally into black mice (body mass ˜0.03 kg). All injections were performed in duplicate.
Following administration of the solutions of Table 6, the endogenous cystine concentrations in two organs (kidney and liver) were examined for the 6 mice, i.e., the CDME-injected mice as well as black, heterozygous, and wild-type control mice. The analysis was performed using the cystine binding protein CBP assay of Example 1 and the Bicinchoninic Acid BCA assay (Pierce Biotechnology) for total protein concentration.

## COC(=O)[C@@H](N)CSSC[C@H](N)C(=O)OC [CDME, cystine dimethyl ester]
[1]; 0.5 mM (concentration employed in fibroblasts)
  toxicity to RPTE cells: toxic
[1]; RPTE cells, method states 0.5 mM for 16 hours, CaspASE, FACS
  percentage of cells undergoing apoptosis: 39.7%
[2]; 5,000 mg CDME/kg intraperitoneally, Mouse #1 and #2
  Liver Cystine Concentration: 230 nmol cystine/mg protein and 150 nmol cystine/mg protein
[2]; 10,000 mg CDME/kg intraperitoneally, Mouse #3
  Liver Cystine Concentration: 6.7 nmol cystine/mg protein
